Reference: US8492374B2, “Azaazulene compounds” (Industrial Technology Research Institute, priority 2009, dated 2013)

Tests used:
AMPK A1/B1/G1 = AMPK A1/B1/G1 (Homo sapiens, UniProt Q13131); test: Kinase panel assay (SelectScreen Kinase Profiling, Invitrogen); assay type: biochemical; conditions: 1000 nM of compound B26
Method: (§1) The kinase panel assay of compound B26 of this invention was performed by SelectScreen® Kinase Profiling Services of Invitrogen. The inhibitory effects of 1000 nM of compound B26 against various kinases whom shown >50% inhibitory effects are summarized in following Table 5.

AMPK A2/B1/G1 = AMPK A2/B1/G1 (Homo sapiens, UniProt P54646); test: as above; assay type: biochemical; conditions: 1000 nM of compound B26
Method: as §1

BLK = BLK (Homo sapiens, UniProt P51451); test: as above; assay type: biochemical; conditions: 1000 nM of compound B26
Method: as §1

CSF1R (FMS) = CSF1R (FMS) (Homo sapiens, UniProt P07333); test: as above; assay type: biochemical; conditions: 1000 nM of compound B26
Method: as §1

FGFR1 = FGFR1 (Homo sapiens, UniProt P11362); test: as above; assay type: biochemical; conditions: 1000 nM of compound B26
Method: as §1

FGFR2 = FGFR2 (Homo sapiens, UniProt P21802); test: as above; assay type: biochemical; conditions: 1000 nM of compound B26
Method: as §1

FGFR3 = FGFR3 (Homo sapiens, UniProt P22607); test: as above; assay type: biochemical; conditions: 1000 nM of compound B26
Method: as §1

FGFR3 K650E = FGFR3 K650E (Homo sapiens, UniProt P22607, K650E); test: as above; assay type: biochemical; conditions: 1000 nM of compound B26
Method: as §1

FGR = FGR (Homo sapiens, UniProt P09769); test: as above; assay type: biochemical; conditions: 1000 nM of compound B26
Method: as §1

FLT3 = FLT3 (Homo sapiens, UniProt P36888); test: as above; assay type: biochemical; conditions: 1000 nM of compound B26
Method: as §1

FLT3 D835Y = FLT3 D835Y (Homo sapiens, UniProt P36888, D835Y); test: as above; assay type: biochemical; conditions: 1000 nM of compound B26
Method: as §1

FLT4 (VEGFR3) = FLT4 (VEGFR3) (Homo sapiens, UniProt P35916); test: as above; assay type: biochemical; conditions: 1000 nM of compound B26
Method: as §1

KDR (VEGFR2) = KDR (VEGFR2) (Homo sapiens, UniProt P35968); test: as above; assay type: biochemical; conditions: 1000 nM of compound B26
Method: as §1

KIT = KIT (Homo sapiens, UniProt P10721); test: as above; assay type: biochemical; conditions: 1000 nM of compound B26
Method: as §1

LCK = LCK (Homo sapiens, UniProt P06239); test: as above; assay type: biochemical; conditions: 1000 nM of compound B26
Method: as §1

LYN A = LYN A (Homo sapiens, UniProt P07948); test: as above; assay type: biochemical; conditions: 1000 nM of compound B26
Method: as §1

LYN B = LYN B (Homo sapiens, UniProt P07948); test: as above; assay type: biochemical; conditions: 1000 nM of compound B26
Method: as §1

MAP4K5 (KHS1) = MAP4K5 (KHS1) (Homo sapiens, UniProt Q9Y4K4); test: as above; assay type: biochemical; conditions: 1000 nM of compound B26
Method: as §1

NTRK1 (TRKA) = NTRK1 (TRKA) (Homo sapiens, UniProt P04629); test: as above; assay type: biochemical; conditions: 1000 nM of compound B26
Method: as §1

NTRK2 (TRKB) = NTRK2 (TRKB) (Homo sapiens, UniProt Q16620); test: as above; assay type: biochemical; conditions: 1000 nM of compound B26
Method: as §1

NTRK3 (TRKC) = NTRK3 (TRKC) (Homo sapiens, UniProt Q16288); test: as above; assay type: biochemical; conditions: 1000 nM of compound B26
Method: as §1

PHKG1 = PHKG1 (Homo sapiens, UniProt Q16816); test: as above; assay type: biochemical; conditions: 1000 nM of compound B26
Method: as §1

RET = RET (Homo sapiens, UniProt P07949); test: as above; assay type: biochemical; conditions: 1000 nM of compound B26
Method: as §1

RET V804L = RET V804L (Homo sapiens, UniProt P07949, V804L); test: as above; assay type: biochemical; conditions: 1000 nM of compound B26
Method: as §1

RET Y791F = RET Y791F (Homo sapiens, UniProt P07949, Y791F); test: as above; assay type: biochemical; conditions: 1000 nM of compound B26
Method: as §1

SRC = SRC (Homo sapiens, UniProt P12931); test: as above; assay type: biochemical; conditions: 1000 nM of compound B26
Method: as §1

SRC N1 = SRC N1 (Homo sapiens, UniProt P12931); test: as above; assay type: biochemical; conditions: 1000 nM of compound B26
Method: as §1

STK4 (MST1) = STK4 (MST1) (Homo sapiens, UniProt Q13043); test: as above; assay type: biochemical; conditions: 1000 nM of compound B26
Method: as §1

YES1 = YES1 (Homo sapiens, UniProt P07947); test: as above; assay type: biochemical; conditions: 1000 nM of compound B26
Method: as §1

[1] = test system: MV4-11 (FLT3-ITD) cell line; test: In vitro cell activity assay (MTT cell viability, 72 hours); assay type: cell-based; conditions: Homo sapiens, 72 hours at 37° C., 10,000 cells per well, read-out: IC50 against MV4-11
How it was run: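 Compound serial dilutions applied to MV4-11 (FLT3-ITD) cells, 10,000 per well, for 72 hours at 37° C. Viability by MTT, formazan dissolved in DMSO, absorbance at 600 nm; IC50 by nonlinear regression as concentration halving absorbance versus untreated cells.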

Sequence of FLT4 (VEGFR3) (P35916 25-1363): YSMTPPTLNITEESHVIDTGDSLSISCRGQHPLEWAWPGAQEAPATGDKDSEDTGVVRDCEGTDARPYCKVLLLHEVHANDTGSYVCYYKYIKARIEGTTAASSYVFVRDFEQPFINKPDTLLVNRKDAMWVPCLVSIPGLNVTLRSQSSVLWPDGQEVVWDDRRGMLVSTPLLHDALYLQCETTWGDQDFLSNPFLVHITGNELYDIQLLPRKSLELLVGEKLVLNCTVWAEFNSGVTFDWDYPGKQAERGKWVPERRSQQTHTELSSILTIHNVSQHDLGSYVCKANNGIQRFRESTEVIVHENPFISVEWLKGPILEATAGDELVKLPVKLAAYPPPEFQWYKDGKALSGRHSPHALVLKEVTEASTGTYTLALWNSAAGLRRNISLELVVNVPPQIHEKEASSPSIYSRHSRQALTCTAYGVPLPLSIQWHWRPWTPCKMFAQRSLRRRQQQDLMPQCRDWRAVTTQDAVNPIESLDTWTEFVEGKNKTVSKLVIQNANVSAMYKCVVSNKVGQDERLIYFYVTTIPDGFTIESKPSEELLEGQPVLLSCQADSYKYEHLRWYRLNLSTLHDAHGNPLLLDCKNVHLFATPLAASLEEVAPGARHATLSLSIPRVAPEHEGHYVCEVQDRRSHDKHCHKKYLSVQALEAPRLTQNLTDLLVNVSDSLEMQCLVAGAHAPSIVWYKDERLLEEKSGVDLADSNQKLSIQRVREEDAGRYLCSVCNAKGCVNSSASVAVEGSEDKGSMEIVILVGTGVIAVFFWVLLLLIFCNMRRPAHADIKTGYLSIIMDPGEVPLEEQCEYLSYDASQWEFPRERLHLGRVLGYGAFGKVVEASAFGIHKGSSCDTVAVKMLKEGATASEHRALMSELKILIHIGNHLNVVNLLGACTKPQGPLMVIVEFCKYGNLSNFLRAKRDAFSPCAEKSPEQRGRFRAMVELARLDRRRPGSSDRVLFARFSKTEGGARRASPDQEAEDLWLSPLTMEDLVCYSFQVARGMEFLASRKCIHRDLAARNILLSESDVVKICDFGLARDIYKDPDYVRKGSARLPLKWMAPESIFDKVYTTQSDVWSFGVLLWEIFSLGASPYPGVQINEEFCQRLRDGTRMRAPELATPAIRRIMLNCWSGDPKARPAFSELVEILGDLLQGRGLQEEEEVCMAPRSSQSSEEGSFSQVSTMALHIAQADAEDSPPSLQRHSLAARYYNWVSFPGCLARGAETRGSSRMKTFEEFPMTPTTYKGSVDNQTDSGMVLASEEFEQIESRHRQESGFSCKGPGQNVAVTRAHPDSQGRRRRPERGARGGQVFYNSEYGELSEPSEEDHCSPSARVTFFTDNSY
Sequence of NTRK1 (TRKA) (P04629 33-796): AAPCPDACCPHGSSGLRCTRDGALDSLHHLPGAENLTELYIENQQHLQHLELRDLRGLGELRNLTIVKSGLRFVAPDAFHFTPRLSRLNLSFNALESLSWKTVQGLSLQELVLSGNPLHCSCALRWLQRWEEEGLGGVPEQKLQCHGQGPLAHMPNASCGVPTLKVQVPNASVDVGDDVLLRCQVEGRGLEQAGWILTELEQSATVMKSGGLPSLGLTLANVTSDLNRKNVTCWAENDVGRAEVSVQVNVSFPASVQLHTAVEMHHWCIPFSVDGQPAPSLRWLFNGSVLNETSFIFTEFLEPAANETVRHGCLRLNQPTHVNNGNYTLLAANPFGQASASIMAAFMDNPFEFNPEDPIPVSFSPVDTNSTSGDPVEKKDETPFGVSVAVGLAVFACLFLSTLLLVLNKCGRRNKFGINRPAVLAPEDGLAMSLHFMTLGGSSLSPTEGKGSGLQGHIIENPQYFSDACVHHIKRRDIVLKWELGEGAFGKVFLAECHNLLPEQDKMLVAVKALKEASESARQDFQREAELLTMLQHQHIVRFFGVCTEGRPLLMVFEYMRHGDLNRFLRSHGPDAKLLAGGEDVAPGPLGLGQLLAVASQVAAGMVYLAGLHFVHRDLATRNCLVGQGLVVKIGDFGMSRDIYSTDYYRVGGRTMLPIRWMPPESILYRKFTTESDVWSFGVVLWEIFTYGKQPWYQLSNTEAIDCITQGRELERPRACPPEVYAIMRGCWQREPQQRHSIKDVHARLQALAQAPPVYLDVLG
Sequence of BLK (P51451 whole entry): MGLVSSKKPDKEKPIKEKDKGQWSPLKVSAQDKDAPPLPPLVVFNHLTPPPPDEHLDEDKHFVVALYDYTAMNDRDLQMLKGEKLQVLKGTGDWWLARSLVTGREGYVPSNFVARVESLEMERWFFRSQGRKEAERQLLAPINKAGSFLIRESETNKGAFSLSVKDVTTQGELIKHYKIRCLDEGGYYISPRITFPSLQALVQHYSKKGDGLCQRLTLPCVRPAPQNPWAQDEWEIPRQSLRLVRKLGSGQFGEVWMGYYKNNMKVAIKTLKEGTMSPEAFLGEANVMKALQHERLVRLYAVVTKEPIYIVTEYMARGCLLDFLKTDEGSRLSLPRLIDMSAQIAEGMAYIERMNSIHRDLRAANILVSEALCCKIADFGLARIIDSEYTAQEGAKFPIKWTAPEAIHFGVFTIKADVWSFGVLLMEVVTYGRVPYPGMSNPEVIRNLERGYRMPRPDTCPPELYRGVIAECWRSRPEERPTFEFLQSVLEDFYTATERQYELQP
Sequence of YES1 (P07947 whole entry): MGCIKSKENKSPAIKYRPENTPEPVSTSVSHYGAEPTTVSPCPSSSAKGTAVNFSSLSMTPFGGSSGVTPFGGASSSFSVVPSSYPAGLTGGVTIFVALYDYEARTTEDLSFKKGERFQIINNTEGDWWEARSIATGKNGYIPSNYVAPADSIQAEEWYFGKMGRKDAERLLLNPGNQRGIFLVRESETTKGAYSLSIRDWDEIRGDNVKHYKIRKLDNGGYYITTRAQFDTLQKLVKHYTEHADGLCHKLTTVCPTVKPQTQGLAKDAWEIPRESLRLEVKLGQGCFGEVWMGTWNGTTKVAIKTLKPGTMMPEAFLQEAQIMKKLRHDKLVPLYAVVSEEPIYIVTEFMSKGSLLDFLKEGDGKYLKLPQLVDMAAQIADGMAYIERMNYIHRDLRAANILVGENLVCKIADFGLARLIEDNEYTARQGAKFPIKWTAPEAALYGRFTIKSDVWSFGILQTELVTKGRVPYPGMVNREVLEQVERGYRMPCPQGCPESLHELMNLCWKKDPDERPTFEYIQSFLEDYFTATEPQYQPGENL
Sequence of FGFR3 K650E (P22607 23-806 K650E): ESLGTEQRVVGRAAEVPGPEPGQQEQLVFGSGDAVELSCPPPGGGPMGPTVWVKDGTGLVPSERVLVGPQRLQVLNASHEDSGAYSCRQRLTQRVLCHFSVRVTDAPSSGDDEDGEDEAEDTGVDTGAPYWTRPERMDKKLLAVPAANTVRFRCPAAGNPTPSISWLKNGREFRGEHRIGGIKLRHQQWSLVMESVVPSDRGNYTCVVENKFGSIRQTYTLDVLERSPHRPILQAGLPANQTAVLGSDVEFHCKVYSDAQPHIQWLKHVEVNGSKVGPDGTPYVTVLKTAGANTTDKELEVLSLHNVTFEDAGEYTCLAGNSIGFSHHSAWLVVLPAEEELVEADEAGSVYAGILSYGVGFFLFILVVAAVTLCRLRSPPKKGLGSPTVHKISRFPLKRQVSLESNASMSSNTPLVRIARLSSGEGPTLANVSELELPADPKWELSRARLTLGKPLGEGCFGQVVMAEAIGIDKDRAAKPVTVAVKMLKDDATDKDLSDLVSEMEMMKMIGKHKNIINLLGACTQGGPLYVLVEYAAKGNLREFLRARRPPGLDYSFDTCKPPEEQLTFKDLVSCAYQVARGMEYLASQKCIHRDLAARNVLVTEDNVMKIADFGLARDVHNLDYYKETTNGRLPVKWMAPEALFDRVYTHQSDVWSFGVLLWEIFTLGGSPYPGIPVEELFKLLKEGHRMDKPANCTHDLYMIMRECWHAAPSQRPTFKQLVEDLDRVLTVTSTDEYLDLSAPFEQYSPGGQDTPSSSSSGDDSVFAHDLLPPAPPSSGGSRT
Sequence of FGR (P09769 whole entry): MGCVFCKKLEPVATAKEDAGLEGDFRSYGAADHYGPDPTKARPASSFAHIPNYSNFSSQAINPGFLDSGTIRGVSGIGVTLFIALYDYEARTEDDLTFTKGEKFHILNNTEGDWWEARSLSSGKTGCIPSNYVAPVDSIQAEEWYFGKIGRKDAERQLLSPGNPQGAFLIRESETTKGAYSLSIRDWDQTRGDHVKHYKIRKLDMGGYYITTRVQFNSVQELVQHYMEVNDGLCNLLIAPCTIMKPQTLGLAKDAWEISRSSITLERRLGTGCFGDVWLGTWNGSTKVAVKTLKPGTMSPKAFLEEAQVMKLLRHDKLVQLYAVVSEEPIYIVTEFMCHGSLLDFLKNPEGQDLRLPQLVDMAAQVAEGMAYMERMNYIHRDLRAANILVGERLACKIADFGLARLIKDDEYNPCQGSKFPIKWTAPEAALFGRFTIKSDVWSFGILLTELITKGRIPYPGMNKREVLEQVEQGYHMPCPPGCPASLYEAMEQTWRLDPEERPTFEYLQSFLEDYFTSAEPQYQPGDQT
Sequence of FGFR3 (P22607 23-806): as the sequence (P22607 23-806 K650E) above, with E628K counted along it
Sequence of LCK (P06239 whole entry): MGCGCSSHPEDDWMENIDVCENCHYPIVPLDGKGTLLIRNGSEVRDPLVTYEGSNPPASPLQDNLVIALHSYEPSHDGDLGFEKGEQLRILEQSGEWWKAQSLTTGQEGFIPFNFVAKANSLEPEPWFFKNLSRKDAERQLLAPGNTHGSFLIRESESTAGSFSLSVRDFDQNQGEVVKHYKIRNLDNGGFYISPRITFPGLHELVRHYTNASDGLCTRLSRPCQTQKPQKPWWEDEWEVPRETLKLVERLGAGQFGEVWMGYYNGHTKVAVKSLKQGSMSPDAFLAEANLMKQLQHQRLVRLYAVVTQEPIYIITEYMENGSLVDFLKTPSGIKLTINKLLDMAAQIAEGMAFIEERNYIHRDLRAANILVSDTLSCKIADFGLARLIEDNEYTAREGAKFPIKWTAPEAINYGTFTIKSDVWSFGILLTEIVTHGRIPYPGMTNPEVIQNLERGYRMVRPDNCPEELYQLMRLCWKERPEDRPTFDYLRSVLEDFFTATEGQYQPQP

Work on CN1CCN(c2ccc3[nH]c(-c4c5cccccc-5[nH]c4=O)nc3c2)CC1 [Compound B26] yielded an inhibition at 1 µM (AMPK A1/B1/G1) of 88%, an inhibition at 1 µM (AMPK A2/B1/G1) of 70% and an inhibition at 1 µM (BLK) of 52%. It also gave an inhibition at 1 µM (CSF1R (FMS)) of 60%, an inhibition at 1 µM (FGFR1) of 54% and an inhibition at 1 µM (FGFR2) of 48%. The inhibition at 1 µM (FGFR3) was 62%, the inhibition at 1 µM (FGFR3 K650E) was 47% and the inhibition at 1 µM (FGR) was 69%. For the same compound, the inhibition at 1 µM (FLT3) was 95%, the inhibition at 1 µM (FLT3 D835Y) was 98% and the inhibition at 1 µM (FLT4 (VEGFR3)) was 50%. The inhibition at 1 µM (KDR (VEGFR2)) was 64%, the inhibition at 1 µM (KIT) was 61% and the inhibition at 1 µM (LCK) was 63%. It also gave an inhibition at 1 µM (LYN A) of 57%, an inhibition at 1 µM (LYN B) of 51% and an inhibition at 1 µM (MAP4K5 (KHS1)) of 60%. For the same compound, the inhibition at 1 µM (NTRK1 (TRKA)) was 89%, the inhibition at 1 µM (NTRK2 (TRKB)) was 84% and the inhibition at 1 µM (NTRK3 (TRKC)) was 76%. The inhibition at 1 µM (PHKG1) was 53%, the inhibition at 1 µM (RET) was 81% and the inhibition at 1 µM (RET V804L) was 79%. The inhibition at 1 µM (RET Y791F) was 79%, the inhibition at 1 µM (SRC) was 50% and the inhibition at 1 µM (SRC N1) was 52%. It also gave an inhibition at 1 µM (STK4 (MST1)) of 59%, an inhibition at 1 µM (YES1) of 73% and an IC50 [1] of 21.1 nM.
